Experimental findings from patent US11229628B2, “TRPA1 and TRPV4 inhibitors and methods of using the same for organ-specific inflammation and itch” (Duke University, priority 2015, dated 2022) are described below.

One assay concerns the target T1, human TRPV1 (Homo sapiens, UniProt Q8NER1).
T1 construct: expressed in transfected cells; host or cells: N2a cells
The assay is described as follows: Ca2+ signal in N2a cells transfected with human TRPV1 (capsaicin stimulation). The note with it: 5 μM capsaicin stimulation. Type of assay: cell-based. The protocol:
Compounds were tested for their effect on TRPV1, TRPV2, and TRPV3. Methods were similar to those described in Example 15. Briefly, N2a cells were transfected with human TRPV1, TRPV2, or TRPV3. eGFP-transfection was used as control. For specific stimulation of TRPV1, 5 μM capsaicin was used. For stimulation of TRPV2, hypotonicity (260 mosmol/L) was used, based on previous reports of TRPV2 being osmotically responsive. N2a cells were not responsive to hypotonicity, and neither were control-transfected cells. For TRPV3-expressing cells, camphor (20% of a commercially available stock solution) was used. […] Stimulation and control protocols were applied as for TRPA1-expressing N2a cells as detailed above in Example 15.
For TRPV1, TRPV2, and TRPV3, Ca2+ transience was not affected by administration of 16-8 or 16-8/18hy.

The target in the next assay is TRPV4 (Homo sapiens, UniProt Q9HBA0). The assay is described as follows: TRPV4-mediated calcium influx in N2a cells with targeted expression of human TRPV4 (Ca2+ imaging, activation with 10 nM GSK101). The format is cell-based. To be noted: 2.5 μM inhibitor, pre-incubation 10 min. The arrangement: expressed in transfected cells; host or cells: N2a cells. The method, then:
Compounds (GSK205, 16-12, 16-13, 16-14, 16-18, 16-8, and 16-8/18hy) were tested for their effect on TRPV4-mediated calcium influx in N2a cultured cells with targeted expression of human TRPV4. Ca2+ imaging was performed according to Li et al. (Environ. Health Perspect. 2011, 119, 784-93) and Moore et al. (Proc. Natl. Acad. Sci. U.S.A. 2013, 110, E3225-E3234). Briefly, Ca2+ imaging of primary mouse epidermal keratinocytes (1° MK) in response to chemical activation of TRPV4 was conducted after loading with 2 μM fura2-AM, following a ratiometric Ca2+-imaging protocol with 340/380 nm blue light for dual excitation. Ratios of emissions were acquired at 0.5 Hz. ΔR/R0 was determined as the fraction of the increase of a given ratio over baseline ratio, divided by baseline ratio. For stimulation of cells with UVB, where fura-2 was not suitable because of the proximity of stimulation with 340/380 nm vs. 295 nm, 2 μM fluo4-AM was used instead. Ca2+ imaging was carried out at 488 nm excitation, acquisition of emissions at 0.5 Hz, expressed as ΔF/F0. TRPV4 was activated with 10 nM GSK101, a specific activator, which had no effect on RFP-transfected cells. Each of the […] compounds were added to a concentration of 2.5 μM, and its effect was observed.
The ordinate is the peak calcium concentration in the cells (average n>75 cells) in nM.

A further assay addresses T2, human TRPA1 (Homo sapiens, UniProt O75762).
T2 construct: expressed in transfected cells; host or cells: N2a cells
In words: Ca2+ transient in N2a cells transfected with human TRPA1, evoked by AITC. The format is cell-based. The note with it: for inhibitory activity against human TRPA1: 5 μM compound. The method, then:
Compounds were tested for their effect on TRPA1. N2a permanent cells were transfected with human TRPA1 cDNA, using a pcDNA3.1 expression plasmid. They were co-transfected with eGFP-expressing plasmid, or, for control, with eGFP plasmid only.
Cells were then pre-exposed to 5 μM of compounds 16-8 and 16-8/18hy for 10 min.
Averaged Ca2+ signal is shown from >75 cells. The resulting Ca2+ transient evoked by 60 μM AITC was reduced by >80% upon administration of compound 16-8 or 16-8/18hy at 5 μM, indicating appreciable TRPA1-inhibitory effects of both compounds.

The next assay has as its system BL6 mice. In words: Formalin-evoked nocifensive behavior, whiskerpad injection pain model in mice. To be noted: for formalin-evoked nocifensive behavior at the 45-min time-point / formalin-evoked nocifensive behavior, time course: 0.5 mM/10 μL whiskerpad; for formalin-evoked nocifensive behavior, quantitation (in particular second phase): pre-injected into whiskerpad at 0.5 mM/10 μL, 15 min before formalin. The format is in vivo, mouse. The protocol: Compounds were tested for their effect in reducing pain using an in vivo pain model in mice. For mouse formalin-evoked irritant behavior measurements, mice were well-fed, well-rested, and tested at the same time of day, at the same time-point of their circadian rhythm. They were allowed to acclimate to a plexiglas chamber for at least 30 min before testing, and received 10 μL subcutaneous injection of 4% of formalin (diluted from an aqueous solution of commercial 37% formaldehyde with normal saline (NS)) through a 30-gauge needle into the right whiskerpad, as further detailed in Luccarini et al. (J. Pain, 2006, 7, 908-914). Normal saline was used as control injection. After injection, mice were immediately placed back into the chamber and the rubbing behavior was recorded by a private consumer-type video-camera for a 45 min observation period. The recording time was divided into 9 blocks of 5 min, and a nociceptive score was determined per block by measuring the time that the animals spent rubbing the injected area predominantly with the ipsilateral fore-paw and rarely with hind-paw. This rubbing behavior with fore-paw is evoked by pain, which is distinct from itch behavior. Behavioral analysis was conducted by observers blinded to treatment.
To investigate the effects of the specific compounds GSK205, 16-8, and 16-8/18hy on formalin-induced nociceptive behavior, mice received a single subcutaneous injection of the compounds into the whiskerpad (10 μL, dissolved in 4% DMSO) 15 min before formalin injection. Control animals received the same volume of NS, 4% DMSO.
Note the biphasic response and “clean” controls. […] This concentration had no effect on residual nocifensive behavior in Trpv4−/− mice. […] Also note that none of the compounds influenced the first phase, which was caused by the direct irritation that formalin causes on peripheral whisker-pad nerve endings.

For the next assay, the system named is mice. In words: UVB-overexposure evoked nocifensive behavior (sunburn model), topical treatment. The format is in vivo, mouse. The note with it: 0.5 mM in 40 μL. The protocol:
Compounds were tested for their effect on nocifensive behavior (response to pain) following UVB overexposure. Behavioral tests were performed to evaluate the decrease in withdrawal thresholds in response to mechanical von Frey hair or thermal stimuli applied to hind paws. The Von-Frey apparatus (Ugo Basile) applied a mechanical stimulus with a flexible steel wire from underneath the hind paw. The force leading to withdrawal was determined. For the thermal stimuli test, paws were stimulated with heat from underneath applied by an infrared beam (Hargreave's test apparatus; Ugo Basile), and withdrawal latencies were recorded. The withdrawal thresholds were ascertained before and after UV exposure. Mice were exposed to UVB 3-5 days after the last application of tam/oil, using a Bio-Rad Gel Doc 2000 UV transilluminator (302 nm) for 5 min with an exposure of 600 mJ/cm^2. This represents 5-10 times the minimal erythema-inducing dose, in keeping with the rationale of inducing sunburn and studying sunburn-evoked pain.

T2 sequence (O75762 whole entry): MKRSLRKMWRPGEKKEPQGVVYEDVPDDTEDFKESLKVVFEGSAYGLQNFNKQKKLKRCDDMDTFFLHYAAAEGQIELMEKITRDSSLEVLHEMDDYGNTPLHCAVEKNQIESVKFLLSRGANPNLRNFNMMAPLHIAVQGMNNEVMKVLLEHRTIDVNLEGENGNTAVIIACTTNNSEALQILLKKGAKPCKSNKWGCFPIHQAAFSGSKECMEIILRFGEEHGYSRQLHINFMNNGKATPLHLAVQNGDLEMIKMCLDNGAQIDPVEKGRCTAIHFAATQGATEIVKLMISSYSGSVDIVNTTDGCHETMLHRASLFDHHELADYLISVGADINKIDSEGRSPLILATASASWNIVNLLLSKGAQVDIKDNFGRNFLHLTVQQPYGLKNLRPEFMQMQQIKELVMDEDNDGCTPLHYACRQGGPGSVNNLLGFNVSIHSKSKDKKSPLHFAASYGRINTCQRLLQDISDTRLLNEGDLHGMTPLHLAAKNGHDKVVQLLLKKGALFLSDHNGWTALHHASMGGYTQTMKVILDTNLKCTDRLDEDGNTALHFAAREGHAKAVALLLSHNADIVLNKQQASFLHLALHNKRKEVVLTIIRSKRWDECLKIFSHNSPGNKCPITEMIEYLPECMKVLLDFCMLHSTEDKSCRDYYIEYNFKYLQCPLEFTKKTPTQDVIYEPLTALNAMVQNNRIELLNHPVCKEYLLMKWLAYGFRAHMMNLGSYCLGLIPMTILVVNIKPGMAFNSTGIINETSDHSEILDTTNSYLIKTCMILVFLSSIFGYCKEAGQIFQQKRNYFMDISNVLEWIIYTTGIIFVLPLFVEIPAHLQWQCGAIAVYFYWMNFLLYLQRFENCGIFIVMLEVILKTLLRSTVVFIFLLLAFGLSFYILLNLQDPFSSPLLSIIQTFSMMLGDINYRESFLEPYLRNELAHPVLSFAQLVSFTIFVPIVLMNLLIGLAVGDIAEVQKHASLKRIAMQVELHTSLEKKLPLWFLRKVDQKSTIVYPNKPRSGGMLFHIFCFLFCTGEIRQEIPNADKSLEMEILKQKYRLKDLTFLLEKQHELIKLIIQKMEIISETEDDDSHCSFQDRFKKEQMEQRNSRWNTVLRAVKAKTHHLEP
Sequence of TRPV4 (Q9HBA0 whole entry): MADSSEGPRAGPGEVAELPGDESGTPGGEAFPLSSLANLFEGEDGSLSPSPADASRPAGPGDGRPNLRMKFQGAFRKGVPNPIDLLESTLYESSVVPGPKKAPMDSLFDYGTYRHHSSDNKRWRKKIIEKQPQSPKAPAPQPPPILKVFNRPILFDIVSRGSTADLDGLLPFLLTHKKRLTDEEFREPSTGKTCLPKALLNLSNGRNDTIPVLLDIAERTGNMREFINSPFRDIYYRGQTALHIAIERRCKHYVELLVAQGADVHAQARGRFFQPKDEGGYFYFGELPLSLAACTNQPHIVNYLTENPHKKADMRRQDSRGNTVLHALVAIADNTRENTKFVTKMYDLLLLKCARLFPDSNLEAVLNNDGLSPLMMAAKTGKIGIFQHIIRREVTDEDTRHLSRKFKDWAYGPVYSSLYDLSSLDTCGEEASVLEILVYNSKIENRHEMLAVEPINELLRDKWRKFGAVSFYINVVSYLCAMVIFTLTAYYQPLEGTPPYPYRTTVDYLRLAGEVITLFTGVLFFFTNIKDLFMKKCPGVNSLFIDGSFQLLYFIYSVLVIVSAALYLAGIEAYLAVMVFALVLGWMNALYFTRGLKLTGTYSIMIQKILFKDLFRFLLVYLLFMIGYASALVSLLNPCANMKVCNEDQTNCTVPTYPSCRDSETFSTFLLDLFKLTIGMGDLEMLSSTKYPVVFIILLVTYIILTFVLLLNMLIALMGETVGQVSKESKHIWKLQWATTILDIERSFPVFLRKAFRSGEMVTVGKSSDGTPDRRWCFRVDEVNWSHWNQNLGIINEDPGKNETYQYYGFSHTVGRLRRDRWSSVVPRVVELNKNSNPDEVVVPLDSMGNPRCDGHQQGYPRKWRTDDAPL
T1 sequence (Q8NER1 whole entry): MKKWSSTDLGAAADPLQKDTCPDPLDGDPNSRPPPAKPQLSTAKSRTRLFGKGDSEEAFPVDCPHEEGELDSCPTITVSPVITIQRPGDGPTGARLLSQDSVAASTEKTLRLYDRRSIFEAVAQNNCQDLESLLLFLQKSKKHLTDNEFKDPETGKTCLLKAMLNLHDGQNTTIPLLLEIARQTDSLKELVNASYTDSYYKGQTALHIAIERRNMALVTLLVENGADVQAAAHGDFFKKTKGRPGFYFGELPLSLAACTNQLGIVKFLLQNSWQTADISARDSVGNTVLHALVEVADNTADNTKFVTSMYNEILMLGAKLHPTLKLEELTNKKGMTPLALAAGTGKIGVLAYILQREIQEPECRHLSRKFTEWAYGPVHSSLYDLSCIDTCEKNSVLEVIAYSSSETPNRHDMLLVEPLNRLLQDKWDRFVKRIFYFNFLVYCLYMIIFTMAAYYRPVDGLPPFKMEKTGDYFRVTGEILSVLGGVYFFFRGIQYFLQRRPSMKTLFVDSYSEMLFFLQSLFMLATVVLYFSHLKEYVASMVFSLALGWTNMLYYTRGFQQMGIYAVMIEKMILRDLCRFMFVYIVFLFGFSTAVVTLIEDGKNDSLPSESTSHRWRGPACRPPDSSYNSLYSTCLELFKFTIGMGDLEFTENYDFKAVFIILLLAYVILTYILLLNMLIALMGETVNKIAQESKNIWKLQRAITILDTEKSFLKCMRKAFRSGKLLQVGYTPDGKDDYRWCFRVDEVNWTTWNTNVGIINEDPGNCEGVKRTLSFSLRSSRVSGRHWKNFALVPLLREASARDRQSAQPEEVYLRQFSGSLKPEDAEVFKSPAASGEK

For `CCN(CCc1ccc(Nc2nc(-c3ccccc3)cs2)cc1)Cc1ccccc1` [16-8/18hy], the “Ca2+ transience, TRPV1” value at human TRPV1 is “not affected”. For the same compound, the “inhibition of TRPV4-mediated calcium influx (peak calcium concentration in the cells)” value at TRPV4 is “did not show enhanced inhibition over 16-8”. Also, on human TRPA1, the “inhibitory activity against human TRPA1” value is recorded as “showed inhibitory activity”. Besides, in the assay with BL6 mice, the “formalin-evoked nocifensive behavior at the 45-min time-point” value is “reversal to control levels”; the “formalin-evoked nocifensive behavior, time course” value is given as “significantly attenuated nocifensive behavior”; the “formalin-evoked nocifensive behavior, quantitation (in particular second phase)” value is “significant attenuation of nocifensive behavior”.
For the compound `CN(CCc1ccc(Nc2nc(-c3ccccc3)cs2)cc1)Cc1ccccc1` [Compound 16-8], the “Ca2+ transience, TRPV1” value on human TRPV1 is recorded as “not affected”. The “UVB-overexposure evoked nocifensive behavior (response to pain)” value in the assay on mice is “especially effective in reducing the response to pain”. For the same compound, the “inhibition of TRPV4-mediated calcium influx (peak calcium concentration in the cells)” value at TRPV4 is recorded as “most potent”. For the same compound, the “inhibitory activity against human TRPA1” value at human TRPA1 is given as “showed inhibitory activity”. In the assay on BL6 mice, the “formalin-evoked nocifensive behavior at the 45-min time-point” value is “reduction to control levels”; the “formalin-evoked nocifensive behavior, time course” value is “significantly attenuated nocifensive behavior”; the “formalin-evoked nocifensive behavior, quantitation (in particular second phase)” value is listed as “significant attenuation of nocifensive behavior”.
Regarding `CN(CCc1ccc(Nc2nc(-c3cccnc3)cs2)cc1)Cc1ccccc1` [GSK205], the “UVB-overexposure evoked nocifensive behavior (response to pain)” value in the assay on mice is recorded as “as effective as vehicle”. The “inhibition of TRPV4-mediated calcium influx (peak calcium concentration in the cells)” value at TRPV4 was “very low potency”. Besides, the “inhibition of TRPA1 activity” value against human TRPA1 (doses below or equaling 25 μM) was “did not inhibit TRPA1 activity”. Besides, in the assay with BL6 mice, the “formalin-evoked nocifensive behavior, time course” value was “not different from control” and the “formalin-evoked nocifensive behavior, quantitation (in particular second phase)” value is on record as “lack of effect”.
